# Experimental data published in patent US20210204568A1, “CBD-[…]” (THC PHARM GMBH THE HEALTH CONCEPT, priority 2014, published 2021).
# System: freely moving rats
# Experiment: Electropharmacogram (EEG spectral power and physical activity) of freely moving rats after a CBD liquid formulation
# Format: in vivo, rat
# Procedure: FIGS. 1 to 3 show electropharmacograms from electroencephalography (EEG) of adult rats (>3 months old), wherein a dosage of 1 mg/kg (body weight) (FIG. 1), 5 mg/kg (body weight (FIGS. 2), and 15 mg/kg (body weight) (FIG. 3) cannabidiol was administered in the form of a liquid formulation.
# Under general anesthesia, four depth electrodes were implanted into the prefrontal cortex, the hippocampus, the striatum, and the reticular formation of the rats. From the head of the rats, signals are wirelessly transmitted by radio to a computer. At the same time, the physical activity is measured.
# The signals are subjected to a frequency analysis, for example using the fast Fourier transform (FFT), and the frequency content of a signal is determined. In the case of EEG data, the spectrum is divided into multiple regions, which historically are denoted by delta, theta, alpha and beta.
# After the division into seven frequency ranges ((1) to (7), see FIGS. 1-3), the changes in the electric output after administration of a liquid formulation according to the invention comprising cannabidiol can be quantified and, taking the signals of the four brain regions into consideration, a specific change pattern, referred to as the “electropharmacogram (supra)”, is obtained (Dimpfel W., Pharmacological classification of herbal extracts by means of comparison to spectral EEG signatures induced by synthetic drugs in the freely moving rat. Journal of Ethnopharmacology 2013, 149, 583-589).
# Time-dependent progression of the electric output (“spectral power”) (ordinate) in percent from the 45-minute long pre-drug base line (values) in four brain regions of freely moving rats in the presence of a vehicle (4 ml/kg). The frequency ranges are depicted as bars on the abscissa, specifically delta (1), theta (2), alpha1 (3), alpha2 (4), beta1a (5), beta1b (6) and gamma spectral power (7) from left to right, depending on the named brain region, The statistical significance is represented in stars compared to the control group (vehicle): *=p<0.05; **=p<0.01.
# [1] = dosage of 1 mg/kg to 5 mg/kg, adult rats
# [2] = high dosages, 5 or 15 mg/kg (body weight)
compound,measurement,setting,value
"C=C(C)[C@@H]1CCC(C)=C[C@H]1c1c(O)cc(CCCCC)cc1O [CBD, 2-[1R-3-methyl-6-(1-methylethenyl]--cyclohexen-1-yl]-5-pentyl-1,3-benzenediol]",duration for which the specific increase in gamma spectral power can be observed,[1],at least 4 hours
same,gamma spectral power in the hippocampus,[1],not at all
same,gamma spectral power within the striatum,"dosage of 1 mg/kg to 5 mg/kg, adult rats, FIG. 1",increase
same,gamma spectral power,"dosage of 15 mg/kg, adult rats, FIG. 3",no specific increase
same,EEG pattern or electropharmacogram compared with drug classes,[2],corresponds to that of certain antidepressants and analgesic drugs
same,activity index,[2],significant decrease
same,effect according to the electropharmacogram,"high dosages, 5 or 15 mg/kg (body weight), FIGS. 2 and 3",sedating effect
same,effect according to the electropharmacogram,"lowest dosage, less than 5 mg/kg, preferably 1 mg/kg (body weight)",activating and invigorating effect
